For this data set, the system named is adult articular cartilage. Kind of data set: effect on cartilage of sesamoid bones, release of proteoglycan and COMP fragments. Type of data set: cell-based, bovine. The note with it: 10 min treatment at 37° C., undiluted or diluted 1:10, 1:100, 1:1000 with Ringer's solution; compared with Ringer's solution control. As for the experimental part: In an unpublished study, the effects of povidone iodine in non-liposomal form was studied on adult articular cartilage.
Sesamoid bones were dissected within 2-4 h after slaughter from bovine metacarpo-phalangeal joints of adult animals under aseptic conditions. The cartilage from sesamoid bones of a particular animal is uniform with respect to glycosaminoglycan synthesis, glycosaminoglycan content, and proteoglycan composition. Each experimental group consisted of eight sesamoid bones from the same animal. The sesamoid bones were washed in 10 ml cold sterile Ringer's solution for 10 min, incubated respectively in 10 ml of sterile Ringer's solution (control), PVP-iodine, or PVP-iodine dilutions with Ringer's solution (1:10, 1:100, or 1:1000) at 37° C. for 10 min in a humidified atmosphere of 5% CO2 in air, and subsequently washed again for 5×5 min in 10 ml Ringer's solution in each case. […] The culture media of sesamoid bones and extracts of cartilage plugs were used for the quantitative and qualitative characterization of proteoglycans and COMP (cartilage oligomeric matrix protein), because an increased release of fragments of these cartilage matrix constituents equals to a catabolic pathway.

As for “poly(1-vinyl-2-pyrrolidin-2-one)-iodine complex [PVP-iodine]”, the “proteolytic fragmentation of cartilage matrix constituents (proteoglycans, COMP)” value is “no increased proteolytic fragmentation”.

The values are drawn from patent publication US7468194B1, “Preparations for the application of anti-inflammatory agents” (Euro-Celtique, S.A., priority 1999, dated 2008).
